Results published in publication PMC7411887, “New Paracyclophanylthiazoles with Anti-Leukemia Activity: Design, Synthesis, Molecular Docking, and Mechanistic Studies” (Molecules, 2020).

Tests used:
Format in all cases: cell-based, human
caspase-3 = assay: Caspase-3 ELISA on leukemia SR cell line; settings: for Caspase 3 Conc: ± SD
Procedure: Since caspase-3 is important for spreading the apoptotic signal after exposure to antimitotic compounds [38], the effect of compound 3a on the caspase-3 activated enzyme was evaluated using ELISA and replicated three times. The reference compound and 3a were incubated for 30 min at room temperature in the dark on the leukemia SR cell line. […]
color. Add 50 μL of Stop solution into each well and mix thoroughly. The color changes […]
9. Read the O.D. absorbance at 450 nm in a micro-plate reader immediately after adding the
Caspase assay is performed according to the following procedures:
1. Allowing all reagents to reach room temperature before use. Gently mix all liquid reagents prior to use (Note: A standard curve must be run with each assay).
2. Determine the number of 8-well strips needed for the assay. Insert these in the frame(s) for current use. (Re-bag extra strips and frame. Store these in the refrigerator for future […]
3. Add 100 μL of the Standard Diluent Buffer to the zero standard wells. Well(s) reserved for chromogen blank should be left empty.
4. Add 100 μL of standards and controls or diluted samples to the appropriate microtiter wells. The sample dilution chosen should be optimized for each experimental system.
Tap gently on side of plate to mix.
5. Cover wells with plate cover and incubate for 2 hours at room temperature.
6. Thoroughly aspirate or decant solution from wells and discard the liquid. Wash wells 4 times. See Directions for Washing.
7. Pipette 100 μL of Caspase-3 (Active) Detection Antibody solution into each well except the chromogen blank(s). Tap gently on the side of the plate to mix.
8. Cover plate with plate cover and incubate for 1 h at room temperature.
9. Thoroughly aspirate or decant solution from wells and discard the liquid.
10. Wash wells 4 times. See Directions for Washing.
11. Add 100 μL Anti-Rabbit IgG HRP Working Solution to each well except the chromogen blank(s). Prepare the working dilution as described in Preparing IgG HRP.
12. Cover wells with the plate cover and incubate for 30 minutes at room temperature.
13. Thoroughly aspirate or decant solution from wells and discard the liquid. Wash wells 4
14. Add 100 μL of Stabilized Chromogen to each well. The liquid in the wells will begin to
15. Incubate for 30 min at room temperature and in the dark. […]
with aluminum foil or metalized mylar. The incubation time for chromogen substrate is often determined by the microtiter plate reader used. Many plate readers have the capacity to record a maximum optical density (O.D.) of 2.0. The O.D. values should be monitored and the substrate reaction stopped before the O.D. of the positive wells exceeds the limits of the instrument. The O.D. values at 450 nm can only be read after the Stop Solution has been added to each well. If using a reader that records only to 2.0 O.D., […]
16. Add 100 μL of Stop Solution to each well. Tap side of plate gently to mix. The solution in the wells should change from blue to yellow.
17. Read the absorbance of each well at 450 nm having blanked the plate reader against a chromogen blank composed of 100 μL each of Stabilized Chromogen and Stop Solution.
Read the plate within 2 hours after adding the Stop Solution.
18. Use a curve fitting software to generate the standard curve. A four-parameter algorithm provides the best standard curve fit.
19. Read the concentrations for unknown samples and controls from the standard curve.
Multiply value(s) obtained for sample(s) by the appropriate dilution factor to correct for the dilution in step 3. […]

SR cancer cell line = assay: Mitochondrial membrane potential assay
Bcl-2 = Bcl-2 assay on leukemia SR cell line; settings: for Bcl2 Concentration: ± SD
Procedure: 17. Empty the contents of the wells and wash by adding 400 μL of wash solution to every
18. Repeat the wash 4 more times for a total of 5 washes.
19. After the final wash, empty or aspirate the wells and firmly tap the plate on a lint free
paper towel to remove any remaining wash buffer.
20. Pipet 100 μL of Substrate Solution into each well.
21. Incubate for 30 minutes at room temperature on a plate shaker at ~500 rpm.
1. Mix all reagents thoroughly without foaming before use.
3. Take caution not to scratch the surface of the microwells.
5. Use the microwell strips immediately after washing or place upside down on a wet
absorbent paper for not longer than 15 minutes.
Prepare standard (1:2 dilution) in duplicate ranging from 32
8. Add 50 μL of diluted biotin-conjugate to all wells, including the blank wells.
10. Remove plate cover and empty the wells.
13. Remove plate cover and empty the wells.
Proceed to the next step.
available on a rotator set at 100 rpm. Avoid direct exposure to intense light.

For `COc1cc2c(c(OC)c1OC)-c1ccc(OC)c(=O)cc1[C@@H](NC(C)=O)CC2` [Colchicine, colchicine, reference compound], the “level of active caspase-3” value (caspase-3) was 428.9 ng/mL, the “Caspase 3 Conc” value (caspase-3) was 428.9 ± 5.47 pg/mL and the “mitochondrial membrane potential % Live cells” value (SR cancer cell line) was 65.04%. For the same compound, the “mitochondrial membrane potential ΔΨm % Apoptic cells” value (SR cancer cell line) was 34.96%, the “shift in fluorescence (Δψmt) compared with control cells” value (SR cancer cell line) was “significant results” and the “Bcl2 Concentration” value (Bcl-2) was 4.101 ± 0.1441 ng/mL.

In the case of `COC(=O)C=C1SC(=NNC(=O)c2cc3ccc2CCc2ccc(cc2)CC3)N(c2ccccc2)C1=O` [Compound 3a], the “level of active caspase-3” value (caspase-3) is reported as 471.2 ng/mL, the “Caspase 3 Fold Change” value (caspase-3; relative to control) is reported as 8.84 fold and the “Caspase 3 Conc” value (caspase-3) is reported as 471.2 ± 6.11 pg/mL. The “mitochondrial membrane potential % Live cells” value (SR cancer cell line) was 68.8%, the “mitochondrial membrane potential ΔΨm % Apoptic cells” value (SR cancer cell line) was 31.2% and the “shift in fluorescence (Δψmt) compared with control cells” value (SR cancer cell line) was “non-significant shift”. The “Bcl2 Fold Change” value (Bcl-2; relative to control) was 0.59 fold and the “Bcl2 Concentration” value (Bcl-2) was 5.045 ± 0.1918 ng/mL.
